Data as given in ChEMBL document CHEMBL4425166, “Discovery of Pyridinyl Acetamide Derivatives as Potent, Selective, and Orally Bioavailable Porcupine Inhibitors” (ACS Med Chem Lett, 2016).
Converted amounts (≈) assume the structure as drawn. The source made the active and inactive calls. The calls are words filed in the database; no cut-off is given here.

Legend:
[1] = Aqueous solubility of compound in buffer of pH 6.8 after 24 hrs by UV-based high throughput assay; format: physicochemical
[2] = molecular target: T1, Protein-serine O-palmitoleoyltransferase porcupine (Mus musculus, UniProt Q9JJJ7); experiment: Inhibition of PORCN in […] overexpressing Wnt3A co-cultured with TM3 cells transfected with Wnt-luciferase gene after 24 hrs by luminescence assay; format: cell-based
T1 sequence (Q9JJJ7 whole entry): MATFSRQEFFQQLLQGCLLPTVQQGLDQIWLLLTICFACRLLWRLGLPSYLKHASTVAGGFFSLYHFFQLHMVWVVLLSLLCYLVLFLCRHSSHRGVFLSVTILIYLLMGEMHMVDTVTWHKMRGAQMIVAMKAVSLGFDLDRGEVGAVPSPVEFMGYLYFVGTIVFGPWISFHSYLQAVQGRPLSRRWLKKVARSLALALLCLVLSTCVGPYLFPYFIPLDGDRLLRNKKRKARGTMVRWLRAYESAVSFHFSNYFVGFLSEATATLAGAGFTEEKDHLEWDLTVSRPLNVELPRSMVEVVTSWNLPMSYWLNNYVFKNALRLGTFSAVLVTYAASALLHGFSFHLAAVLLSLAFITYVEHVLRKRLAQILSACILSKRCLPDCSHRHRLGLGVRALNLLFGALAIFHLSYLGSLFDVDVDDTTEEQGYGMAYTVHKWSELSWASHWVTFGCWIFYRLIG

[3] = test system: Cytochrome P450; experiment: Inhibition of CYP450 (unknown origin) up to 10 uM; format: ADME, protein assay; details: human
[4] = Toxicity in nude mouse MMTV-Wnt1 model assessed as body weight loss at 0.3 to 3 mg/kg, po qd administered for 2 weeks measured during compound dosing; format: organism-based; details: in vivo, 336 h
[5] = Terminal half life in dog by LC/MS/MS analysis; format: ADME, Canis lupus familiaris; details: in vivo, read-out: beta t1/2 (converted)
[6] = Efflux ratio of permeability in human Caco2 cells; format: ADME, cell-based; details: Caco-2
[7] = Terminal half life in Balb/c mouse at 2 mg/kg, iv or 5 mg/kg via oral gavage by LC/MS/MS analysis; format: ADME, organism-based; details: in vivo, read-out: beta t1/2 (converted)
[8] = Clearance in rat by LC/MS/MS analysis; format: ADME; details: in vivo
[9] = molecular target: Cytochrome P450 2D6 (Homo sapiens, UniProt P10635); experiment: Inhibition of CYP2D6 (unknown origin); format: ADME
Sequence of Cytochrome P450 2D6 (P10635 whole entry): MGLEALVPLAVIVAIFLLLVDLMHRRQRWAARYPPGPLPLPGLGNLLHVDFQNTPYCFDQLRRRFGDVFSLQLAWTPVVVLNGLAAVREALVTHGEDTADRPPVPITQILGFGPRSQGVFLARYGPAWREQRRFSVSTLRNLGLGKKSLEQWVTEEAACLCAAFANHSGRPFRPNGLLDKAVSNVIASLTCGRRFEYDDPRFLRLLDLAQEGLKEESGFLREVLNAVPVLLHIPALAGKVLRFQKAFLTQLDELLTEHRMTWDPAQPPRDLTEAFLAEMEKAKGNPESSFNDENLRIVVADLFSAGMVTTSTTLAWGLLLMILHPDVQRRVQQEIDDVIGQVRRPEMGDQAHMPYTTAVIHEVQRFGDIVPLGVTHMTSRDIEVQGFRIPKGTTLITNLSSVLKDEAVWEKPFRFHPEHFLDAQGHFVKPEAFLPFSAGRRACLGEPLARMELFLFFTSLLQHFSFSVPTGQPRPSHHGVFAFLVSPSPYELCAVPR

[10] = Terminal half life in rat by LC/MS/MS analysis; format: ADME; details: in vivo, read-out: beta t1/2 (converted)
[11] = Volume of distribution at steady state in dog by LC/MS/MS analysis; format: ADME, Canis lupus familiaris; details: in vivo, read-out: Vdss
[12] = Volume of distribution at steady state in rat by LC/MS/MS analysis; format: ADME; details: in vivo, read-out: Vdss
[13] = Clearance in dog by LC/MS/MS analysis; format: ADME, Canis lupus familiaris; details: in vivo
[14] = test system: Mus musculus; experiment: Inhibition of Axin2 mRNA level in nude mouse MMTV-Wnt1 model at 3 mg/kg administered as oral gavage measured after 24 hrs by RT-PCR analysis; format: functional, organism-based
[15] = Protein binding in dog plasma by rapid equilibrium dialysis; format: ADME, cell-free, Canis lupus familiaris; details: read-out: PPB
[16] = test system: Mus musculus; experiment: Antitumor activity in nude mouse MMTV-Wnt1 model assessed as tumor growth inhibition at 0.3 mg/kg, po qd administered for 2 weeks relative to control; format: functional
[17] = Protein binding in rat plasma by rapid equilibrium dialysis; format: ADME, cell-free; details: read-out: PPB (converted)
[18] = Oral bioavailability in rat by LC/MS/MS analysis; format: ADME, organism-based; details: in vivo
[19] = molecular target: Cytochrome P450 2C9 (Homo sapiens, UniProt P11712); experiment: Inhibition of CYP2C9 (unknown origin); format: ADME
Sequence of Cytochrome P450 2C9 (P11712 whole entry): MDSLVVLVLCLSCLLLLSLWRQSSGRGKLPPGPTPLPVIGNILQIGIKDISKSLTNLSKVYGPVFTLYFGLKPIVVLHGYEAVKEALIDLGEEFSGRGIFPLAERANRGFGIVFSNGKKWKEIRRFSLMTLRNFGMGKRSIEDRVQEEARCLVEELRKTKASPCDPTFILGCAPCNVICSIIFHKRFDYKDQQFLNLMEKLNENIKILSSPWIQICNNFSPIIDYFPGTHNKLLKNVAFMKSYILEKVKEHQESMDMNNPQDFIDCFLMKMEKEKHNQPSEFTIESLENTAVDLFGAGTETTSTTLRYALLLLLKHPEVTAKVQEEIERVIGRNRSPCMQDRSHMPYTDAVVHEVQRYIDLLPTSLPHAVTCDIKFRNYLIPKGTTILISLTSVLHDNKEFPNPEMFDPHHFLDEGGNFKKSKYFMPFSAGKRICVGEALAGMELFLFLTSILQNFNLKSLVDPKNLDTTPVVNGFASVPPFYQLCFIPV

[20] = Volume of distribution at steady state in Balb/c mouse at 2 mg/kg, iv after 24 hrs by LC/MS/MS analysis; format: ADME, organism-based; details: in vivo, read-out: Vdss
[21] = Protein binding in human plasma by rapid equilibrium dialysis; format: ADME, cell-free; details: read-out: PPB (converted)
[22] = Oral bioavailability in dog by LC/MS/MS analysis; format: ADME, organism-based, Canis lupus familiaris; details: in vivo
[23] = Oral bioavailability in Balb/c mouse at 5 mg/kg via gavage by LC/MS/MS analysis; format: ADME, organism-based; details: in vivo
[24] = test system: Mus musculus; experiment: Antitumor activity in nude mouse MMTV-Wnt1 model assessed as tumor growth inhibition at 3 mg/kg, po qd administered for 2 weeks relative to control; format: functional
[25] = molecular target: Cytochrome P450 3A4 (Homo sapiens, UniProt P08684); experiment: Inhibition of CYP3A4 (unknown origin); format: ADME
Sequence of Cytochrome P450 3A4 (P08684 whole entry): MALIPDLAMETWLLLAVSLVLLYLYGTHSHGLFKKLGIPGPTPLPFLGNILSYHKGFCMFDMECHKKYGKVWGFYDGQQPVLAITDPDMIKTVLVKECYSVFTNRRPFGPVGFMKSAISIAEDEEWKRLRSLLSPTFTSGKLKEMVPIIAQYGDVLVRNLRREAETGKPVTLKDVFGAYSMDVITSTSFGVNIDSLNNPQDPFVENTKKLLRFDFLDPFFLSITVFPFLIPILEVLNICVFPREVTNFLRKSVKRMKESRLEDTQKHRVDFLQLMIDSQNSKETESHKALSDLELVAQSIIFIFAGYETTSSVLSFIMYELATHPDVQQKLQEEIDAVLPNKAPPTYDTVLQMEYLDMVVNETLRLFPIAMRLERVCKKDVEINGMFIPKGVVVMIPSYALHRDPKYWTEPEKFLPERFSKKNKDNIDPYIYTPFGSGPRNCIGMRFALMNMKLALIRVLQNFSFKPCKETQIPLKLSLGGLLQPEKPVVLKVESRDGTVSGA

[26] = Clearance in Balb/c mouse at 2 mg/kg, iv after 24 hrs by LC/MS/MS analysis; format: ADME, organism-based; details: in vivo
[27] = test system: Mus musculus; experiment: Antitumor activity in nude mouse MMTV-Wnt1 model assessed as tumor growth inhibition at 1 mg/kg, po qd administered for 2 weeks relative to control; format: functional
[28] = test system: Mus musculus; experiment: Inhibition of Axin2 mRNA level in nude mouse MMTV-Wnt1 model at 3 mg/kg administered as oral gavage measured at 5 hrs by RT-PCR analysis; format: functional
[29] = Protein binding in monkey plasma by rapid equilibrium dialysis; format: ADME, cell-free, Macaca mulatta; details: rhesus monkey, read-out: PPB (converted)
[30] = Apparent permeability across apical to basolateral side of human Caco2 cells; format: ADME, cell-based; details: Caco-2
[31] = Protein binding in mouse plasma by rapid equilibrium dialysis; format: ADME, cell-free; details: read-out: PPB (converted)
[32] = Dose normalized Cmax in Balb/c mouse at 5 mg/kg via oral gavage after 24 hrs by LC/MS/MS analysis; format: ADME, organism-based; details: in vivo
[33] = Dose normalized AUC in Balb/c mouse at 5 mg/kg via oral gavage after 24 hrs by LC/MS/MS analysis; format: ADME, organism-based; details: in vivo
[34] = molecular target: T2, Protein-serine O-palmitoleoyltransferase porcupine (Homo sapiens, UniProt Q9H237); experiment: Displacement of [3H]-GNF-1331 from human PORCN after 3 hrs by scintillation counting analysis
T2 sequence (Q9H237 whole entry): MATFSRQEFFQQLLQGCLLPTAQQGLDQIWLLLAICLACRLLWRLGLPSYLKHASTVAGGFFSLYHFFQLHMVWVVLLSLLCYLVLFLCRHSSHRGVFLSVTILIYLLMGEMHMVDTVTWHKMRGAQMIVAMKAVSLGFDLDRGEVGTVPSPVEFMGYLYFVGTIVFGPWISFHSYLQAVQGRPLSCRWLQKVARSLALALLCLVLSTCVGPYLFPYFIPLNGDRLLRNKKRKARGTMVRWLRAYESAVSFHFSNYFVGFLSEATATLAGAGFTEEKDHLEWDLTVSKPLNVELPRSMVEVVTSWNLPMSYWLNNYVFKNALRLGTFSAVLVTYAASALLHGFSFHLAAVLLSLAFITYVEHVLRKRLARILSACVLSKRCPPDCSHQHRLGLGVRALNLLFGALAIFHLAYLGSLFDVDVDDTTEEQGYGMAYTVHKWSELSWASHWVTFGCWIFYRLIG

Structure (SMILES): Cc1cc(-c2ncc(CC(=O)Nc3ccc(-c4cnccn4)cn3)cc2C)ccn1 [WNT-974]
- solubility at 24 h [1]: 210 µM (≈ 83.3 µg/mL)
- IC50 [2]: 0.4 nM

Structure (SMILES): Cc1cc(-c2ccc(OC(=O)Nc3ccc(-c4ccccc4)cc3)cc2)ccn1
- IC50 [2]: > 10000 nM

Structure (SMILES): Cc1cc(CC(=O)Nc2ccc(N3CCNCC3)cn2)cnc1-c1ccnc(F)c1
- IC50 [2]: 24 nM

Structure (SMILES): COC(=O)N1CCN(c2ccc(NC(=O)Cc3cnc(-c4ccnc(C)c4)c(C)c3)nc2)CC1
- solubility at 24 h [1]: > 175 µM

Structure (SMILES): Cc1cc(-c2ccc(CC(=O)Nc3ccc(-c4cnccn4)cn3)cn2)ccn1
- solubility at 24 h [1]: 16 µM (≈ 6.12 µg/mL)

Structure (SMILES): COc1ccc2nc(NC(=O)Cc3ccc(-c4ccnc(C)c4)cc3)sc2c1
- inhibition (INH) [3]: Not Active

Structure (SMILES): CC(=O)N1CCN(c2ccc(NC(=O)Cc3cnc(-c4ccnc(F)c4)c(C)c3)nc2)CC1
- Activity [4]: Non-Toxic
- half-life [5]: 8.86 h
- efflux ratio [6]: 3.2
- half-life [7]: 2.44 h
- clearance [8]: 5.35 mL/min/kg
- solubility at 24 h [1]: 350 µM (≈ 157 µg/mL)
- IC50 [9]: > 10000 nM
- half-life [10]: 2.77 h
- Vd [11]: 0.25 L/kg
- Vd [12]: 0.7 L/kg
- clearance [13]: 0.67 mL/min/kg
- inhibition [14]: inactive
- fraction unbound [15]: 0.091
- T/C [16]: 15%
- fraction unbound [17]: 0.169
- bioavailability [18]: 84%
- IC50 [19]: > 10000 nM
- Vd [20]: 0.57 L/kg
- fraction unbound [21]: 0.05
- bioavailability [22]: 72%
- bioavailability [23]: 96%
- T/C [24]: -84%
- IC50 [25]: > 10000 nM
- clearance [26]: 5.33 mL/min/kg
- T/C [27]: -74%
- IC50 [2]: 0.8 nM
- inhibition in vivo at 3 mg/kg [28]: 90%
- fraction unbound [29]: 0.288
- Papp A→B [30]: 7.5 ×10⁻⁶ cm/s
- fraction unbound [31]: 0.12

Structure (SMILES): Cc1cc(CC(=O)Nc2ccc(-c3cnccn3)cn2)cnc1-c1ccnc(CO)c1
- IC50 [2]: 26 nM

Structure (SMILES): Cc1cc(-c2ncc(CC(=O)Nc3ccc(-c4ccccn4)cn3)cc2C)ccn1
- solubility at 24 h [1]: 32 µM (≈ 12.7 µg/mL)
- IC50 [2]: 0.4 nM

Structure (SMILES): Cc1cc(-c2ccc(CC(=O)Nc3ccc(-c4ccccc4)cn3)cc2)ccn1
- solubility at 24 h [1]: < 2 µM
- IC50 [2]: 0.7 nM

Structure (SMILES): Cc1cc(-c2ccc(CC(=O)Nc3ccc(-c4ccccc4)cn3)cn2)ccn1
- solubility at 24 h [1]: 6 µM (≈ 2.28 µg/mL)
- IC50 [2]: 0.2 nM

Structure (SMILES): CC(=O)N1CCN(c2ccc(NC(=O)Cc3cnc(-c4ccnc(C)c4)c(C)c3)nc2)CC1
- solubility at 24 h [1]: > 175 µM
- IC50 [2]: 0.7 nM

Structure (SMILES): CCCn1c(SCC(=O)Nc2nc3ccc(OC)cc3s2)nnc1-c1ccncc1
- Cmax/dose [32]: 14 nM
- AUC/dose [33]: 0.03 µM·h
- IC50 [34]: 8 nM
- IC50 [2]: 12 nM

Structure (SMILES): COc1ccc2nc(NC(=O)Cc3ccc(-c4ccncc4)cc3)sc2c1
- Cmax/dose [32]: 4100 nM
- AUC/dose [33]: 26 µM·h
- IC50 [25]: 800 nM
- clearance [26]: 2.49 mL/min/kg

Structure (SMILES): COc1ccc2nc(C(=O)NCc3ccc(-c4ccncc4)cc3)sc2c1
- IC50 [2]: 380 nM

Structure (SMILES): Cc1cc(-c2ccc(NC(=O)Nc3ccc(-c4ccccc4)cc3)cc2)ccn1
- IC50 [2]: > 10000 nM

Structure (SMILES): Cc1cc(-c2ccc(CC(=O)Nc3ccc(-c4ccccn4)cn3)cn2)ccn1
- solubility at 24 h [1]: 17 µM (≈ 6.48 µg/mL)

Structure (SMILES): O=C(Cc1ccc(-c2ccncc2)cc1)Nc1nc(-c2ccccc2)cs1
- IC50 [2]: 5.5 nM

Structure (SMILES): Cc1cc(CC(=O)Nc2ccc(-c3cnccn3)cn2)cnc1-c1ccnc(F)c1
- solubility at 24 h [1]: 105 µM (≈ 42 µg/mL)
